Measured values from article PMC9465256, “Discovering monoacylglycerol lipase inhibitors by a combination of fluorogenic substrate assay and activity-based protein profiling” (Frontiers in Pharmacology, 2022).

Legend:
human ABHD12 = target: T1, human ABHD12 (Homo sapiens, UniProt Q8N2K0); assay: ABHD12 activity by competitive ABPP with FP-TAMRA; assay type: biochemical; conditions: for potency towards ABHD12: 100 µM; for potency towards ABHD12 / inhibition at 100 µM: competitive ABPP; for inhibition at 100 µM: recombinant human ABHD12, 100 µM compound
T1 construct: expressed in transfected cells; host or cells: HEK293T (transient transfection; membrane fraction)
T1 sequence (Q8N2K0 1-398): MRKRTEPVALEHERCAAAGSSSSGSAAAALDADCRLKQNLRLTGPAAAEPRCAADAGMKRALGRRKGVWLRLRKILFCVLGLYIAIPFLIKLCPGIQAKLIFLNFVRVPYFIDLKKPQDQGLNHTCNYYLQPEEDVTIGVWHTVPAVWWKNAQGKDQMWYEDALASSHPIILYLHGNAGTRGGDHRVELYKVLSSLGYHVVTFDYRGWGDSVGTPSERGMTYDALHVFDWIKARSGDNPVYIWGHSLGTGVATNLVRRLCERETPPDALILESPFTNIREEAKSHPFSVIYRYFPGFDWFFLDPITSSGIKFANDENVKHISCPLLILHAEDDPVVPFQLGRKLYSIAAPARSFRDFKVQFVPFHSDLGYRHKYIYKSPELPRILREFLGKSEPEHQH
Summary of the method: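 Membrane fractions of HEK293T cells transiently overexpressing human ABHD12 (1 mg/ml) preincubated with inhibitor or DMSO for 30 min at room temperature, then labelled with FP-TAMRA (250 nM final) for 20 min. Quenched samples resolved by SDS-PAGE and read by in-gel fluorescence scanning (Cy3 settings).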

A431 cells = assay: Cell viability assay (CCK-8), A431; assay type: cell-based; conditions: for IC50: Homo sapiens, A-431, read-out: Antiproliferation activity (pIC50 ± SEM) A431 (converted)
Method: (§1) Various cancer cell lines, including human colon cancer cell line HT-29, ovarian cell line OVCAR-3, melanoma cell line B16-F10, skin squamous cancer cells A431, cervical cancer cells Hela, lung cancer cell lines A549, H1975, and HCC827, were purchased from American type culture collection (ATCC). A431, H1975, B16-F10, OVCAR-3, HT-29, HCC827, Hela, and A549 cells were cultured in Dulbecco’s modified Eagle medium (DMEM, Gibco) containing 10% fetal bovine serum (FBS, Gibco), penicillin (100 U/ml) and streptomycin (100 μg/ml). All cell lines were maintained in a humidified 37°C incubator with 5% CO2. The medium was refreshed every 2–3 days and the cells were passaged at ∼90% confluence by adding the fresh medium, followed by vigorously pipetting the resuspend cells. Of note, the cells were only washed with PBS when a significant number of dead cells were observed.
(§2) The antiproliferation activity of the compounds against the cancer cell lines was evaluated using Cell Counting Kit-8. Briefly, cells (∼1,000 per well) in 100 µl of culture medium were plated in a 96-well plate for 24 h and 100 µl of medium with different concentrations of the tested compounds was added to each well for 48 h. Then 10 μl of CCK8 solution (#CK04, Dojindo) was added and incubated at 37°C for 2 h. The absorbance of each well was measured with a plate reader (BioTeck) at 450 nm. Cell viability was calculated as follows: cell viability (%) = [(As-Ab)/(Ac-Ab)] × 100. Among them, As represents the absorbance of experimental wells, Ab represents the absorbance of blank wells and Ac represents the absorbance of control wells. The experiments were repeated at least three times and IC50 values were determined by plotting a log(inhibitor) v. s normalized response (Variable slope) dose–response curve generated using GraphPad Prism software.

H1975 cells = assay: Cell viability assay (CCK-8), H1975; assay type: cell-based; conditions: for IC50: Homo sapiens, NCI-H1975, H1975, 48 h, read-out: Antiproliferation activity (pIC50 ± SEM) H1975 (converted)
Method: as §1, §2

B16-F10 cells = assay: Cell viability assay (CCK-8), B16-F10; assay type: cell-based; conditions: for IC50: Mus musculus, read-out: Antiproliferation activity (pIC50 ± SEM) B16-F10 (converted)
Method: as §1, §2

Hela cells = assay: Cell viability assay (CCK-8), Hela; assay type: cell-based; conditions: 48 h; for IC50: Homo sapiens, read-out: Antiproliferation activity (pIC50 ± SEM) Hela (converted)
Method: as §1, §2

[1] = tested on: serine hydrolases labeled by FP-TAMRA in cancer cells; assay: Competitive ABPP in cancer cell lysates: selectivity / potential targets; assay type: biochemical; conditions: 100 µM, FP-TAMRA 500 nM, in-gel analysis
Method: To identify the potential off-targets of the compounds with anti-cancer activities, ABPP was applied. Cancer cells were seeded in the dishes and were washed with PBS, scraped, centrifugated (3,000 × g, 3 min) and pellets snap frozen in liquid in nitrogen. For ABPP experiments, the cell pellets were lysed by probe sonication (3 × 10 bursts) in PBS, followed by the determination of protein concentration of the intact cell lysate by Qubit assay. Subsequently, 20 µl of the cell lysate (1 mg/ml) was preincubated with 0.5 µl of DMSO (vehicle) or inhibitor (100 μM, finial concentration) for 30 min, followed by the treatment with FP-TAMRA (500 nM, final concentration) for 20 min. The reactions were then quenched by 10 µl sample buffer (×4). The obtained samples were directly loaded and resolved on SDS-PAGE gel (10% acrylamide). The gel-based ABPP results were then scanned and analyzed using a ChemiDoc MP system (Cy3 settings, BioRad).

[2] = 100 µM compound, competitive ABPP with probe FP-TAMRA (250 nM), read-out: ABHD12 Inhibition (%)

Compound | activity (human ABHD12; [2]) | Antiproliferation activity (pIC50 ± SEM) A431 (A431 cells; A431, 48 h, CCK-8) | Antiproliferation activity (pIC50 ± SEM) H1975 (H1975 cells; H1975, 48 h) | Antiproliferation activity (pIC50 ± SEM) B16-F10 (B16-F10 cells; B16-F10, 48 h, CCK-8) | Antiproliferation activity (pIC50 ± SEM) Hela (Hela cells) | selectivity / potential targets among serine hydrolases in cancer cells [1] | activity at 100 µM (human ABHD12; [2]) | potency towards ABHD12 (human ABHD12) | inhibition at 100 µM (human ABHD12) | IC50 (A431 cells; A431, 48 h, CCK-8) | IC50 (H1975 cells) | inhibition of cell viability of B16-F10 (B16-F10 cells; 20 µM, 48 h) | IC50 (B16-F10 cells; B16-F10, 48 h, CCK-8) | IC50 (Hela cells) | inhibition of cell viability of A431 (A431 cells; 20 µM, 48 h)
Cl.N=c1ccn2c(n1)O[C@H]1[C@H](O)[C@@H](CO)O[C@H]12 [compound 1, Cyclocytidine HCl] | 70.1% | <5 | <5 | 5.7 ± 0.2 | 5.0 ± 0.2 | No potential target was found | – | – | – | – | – | – | – | – | –
O=c1cc(-c2ccc(O)cc2)oc2cc(O)cc(O)c12 [compound 9, Apigenin] | – | – | – | – | – | – | 62.8% | neglectable potency | 37% | > 10 µM | > 10 µM | 54% | > 10 µM | > 10 µM | –
COc1ccc2cc3[n+](cc2c1OC)CCc1cc2c(cc1-3)OCO2 [compound 17, Berberine chloride] | – | – | – | – | – | No potential target was found | 86.1% | – | – | > 10 µM | > 10 µM | – | > 10 µM | > 10 µM | –
C[C@H]1COC2=C1C(=O)C(=O)c1c2ccc2c1CCCC2(C)C [compound 23, Cryptotanshinone] | – | – | – | – | – | broad-spectrum inhibitor by targeting a number of serine hydrolases in cancer cells | 81.6% | neglectable potency | 18% | 7.94 µM | 10 µM | – | 7.94 µM | 7.94 µM | –
COc1ccc(C(C)=O)c(O)c1 [compound 64, Paeonol] | – | – | – | – | – | No potential target was found | 92.2% | – | – | 6.31 µM | > 10 µM | – | > 10 µM | > 10 µM | 78%
